According to patent US9255090B2, “Heterocyclyl derivatives and their use as prostaglandin D2 receptor modulators” (Actelion Pharmaceuticals Ltd., priority 2012, dated 2016):

molecular target: hCRTH2 receptor (Homo sapiens (Human), UniProt Q9Y5Y4); test: hCRTH2 receptor membranes radioligand (3H-PGD2) displacement assay; type: binding; details: 3H-PGD2 radioligand displacement, HEK293-hCRTH2 membranes
How it was run: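 HEK293-hCRTH2 membranes, 20 μg/well; 3H-PGD2 added at 2.5 nM; binding buffer 50 mM Tris, 10 mM MnCl2, 1 mM EDTA, pH 7.0; 90 min RT; GF/C filtration, scintillation count. Nonspecific binding: PGD2 at […].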

Chain of hCRTH2 receptor (Q9Y5Y4 whole entry): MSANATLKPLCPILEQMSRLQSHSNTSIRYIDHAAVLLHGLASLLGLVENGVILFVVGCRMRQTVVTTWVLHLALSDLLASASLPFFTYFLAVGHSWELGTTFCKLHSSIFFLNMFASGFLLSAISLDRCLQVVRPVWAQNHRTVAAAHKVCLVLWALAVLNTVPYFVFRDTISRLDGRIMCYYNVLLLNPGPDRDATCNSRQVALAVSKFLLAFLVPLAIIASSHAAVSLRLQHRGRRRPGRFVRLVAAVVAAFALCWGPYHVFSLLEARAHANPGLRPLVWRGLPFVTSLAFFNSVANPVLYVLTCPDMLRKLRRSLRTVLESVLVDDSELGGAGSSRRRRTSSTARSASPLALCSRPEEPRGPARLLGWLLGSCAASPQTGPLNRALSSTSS

Row | SMILES | IC50 [nM]
1 | CCOc1cc(CC(=O)O)ccc1-c1ccc(F)c2c1CN(C(=O)CCc1ncccc1OC)CC2 [Example 314, (3-Ethoxy-4-{5-fluoro-2-[3-(3-methoxy-pyridin-2-yl)-propionyl]-1,2,3,4-tetrahydro-isoquinolin-8-yl}-phenyl)-acetic acid] | 46.1
2 | CCOc1cc(CC(=O)O)ccc1-c1ccc(F)c2c1CN(C(=O)CCc1ccc(F)cc1)CC2 [Example 315, (3-Ethoxy-4-{5-fluoro-2-[3-(4-fluoro-phenyl)-propionyl]-1,2,3,4-tetrahydro-isoquinolin-8-yl}-phenyl)-acetic acid] | 5.1
3 | CCOc1cc(CC(=O)O)ccc1-c1ccc(F)c2c1CN(C(=O)CCc1cccc(F)c1)CC2 [Example 316, (3-Ethoxy-4-{5-fluoro-2-[3-(3-fluoro-phenyl)-propionyl]-1,2,3,4-tetrahydro-isoquinolin-8-yl}-phenyl)-acetic acid] | 2.1
4 | CCOc1cc(CC(=O)O)ccc1-c1ccc(F)c2c1CN(C(=O)CCc1ccccc1F)CC2 [Example 317, (3-Ethoxy-4-{5-fluoro-2-[3-(2-fluoro-phenyl)-propionyl]-1,2,3,4-tetrahydro-isoquinolin-8-yl}-phenyl)-acetic acid] | 1.7
5 | CCOc1cc(CC(=O)O)ccc1-c1ccc(F)c2c1CN(C(=O)Cc1ccccn1)CC2 [Example 342, {3-Ethoxy-4-[5-fluoro-2-(2-pyridin-2-yl-acetyl)-1,2,3,4-tetrahydro-isoquinolin-8-yl]-phenyl}-acetic acid] | 150
6 | C[C@H](CC(=O)N1CCc2c(F)ccc(-c3ccc(CC(=O)O)cc3OCC(F)(F)F)c2C1)c1ccccc1 [Example 347, [4-[5-Fluoro-2-((R)-3-phenyl-butyryl)-1,2,3,4-tetrahydro-isoquinolin-8-yl]-3-(2,2,2-trifluoro-ethoxy)-phenyl]-acetic acid] | 1.5
7 | CCOc1cc(CC(=O)O)ccc1-c1ccc(F)c2c1CN(C(=O)CCc1ccccn1)CC2 [Example 349, {3-Ethoxy-4-[5-fluoro-2-(3-pyridin-2-yl-propionyl)-1,2,3,4-tetrahydro-isoquinolin-8-yl]-phenyl}-acetic acid] | 0.5
8 | CC(C)Oc1cc(CC(=O)O)ccc1-c1ccc(F)c2c1CN(C(=O)CC(C)(C)c1ccccc1)CC2 [Example 354, {4-[5-Fluoro-2-(3-methyl-3-phenyl-butyryl)-1,2,3,4-tetrahydro-isoquinolin-8-yl]-3-isopropoxy-phenyl}-acetic acid] | 4.2
9 | CC(C)Oc1cc(CC(=O)O)ccc1-c1ccc(F)c2c1CN(C(=O)C[C@H](C)c1ccccc1)CC2 [Example 355, {4-[5-Fluoro-2-((S)-3-phenyl-butyryl)-1,2,3,4-tetrahydro-isoquinolin-8-yl]-3-isopropoxy-phenyl}-acetic acid] | 10.3
10 | CC(C)Oc1cc(CC(=O)O)ccc1-c1ccc(F)c2c1CN(C(=O)C[C@@H](C)c1ccccc1)CC2 [Example 356, {4-[5-Fluoro-2-((R)-3-phenyl-butyryl)-1,2,3,4-tetrahydro-isoquinolin-8-yl]-3-isopropoxy-phenyl}-acetic acid] | 2.1
11 | CC(C)Oc1cc(CC(=O)O)ccc1-c1ccc(F)c2c1CN(C(=O)[C@@H]1C[C@H]1c1ccccc1)CC2 [Example 357, {4-[5-Fluoro-2-((1R,2R)-2-phenyl-cyclopropanecarbonyl)-1,2,3,4-tetrahydro-isoquinolin-8-yl]-3-isopropoxy-phenyl}-acetic acid] | 1.6
12 | CCOc1cc(CC(=O)O)ccc1-c1ccc(F)c2c1CN(C(=O)O[C@H](C)c1ccccc1)CC2 [Example 385, 8-(4-Carboxymethyl-2-ethoxy-phenyl)-5-fluoro-3,4-dihydro-1H-isoquinoline-2-carboxylic acid (R)-1-phenyl-ethyl ester] | 35.8
13 | CCOc1cc(CC(=O)O)ccc1-c1ccc(F)c2c1CN(C(=O)OCc1cnccn1)CC2 [Example 386, 8-(4-Carboxymethyl-2-ethoxy-phenyl)-5-fluoro-3,4-dihydro-1H-isoquinoline-2-carboxylic acid pyrazin-2-ylmethyl ester] | 3.4
14 | CCOc1cc(CC(=O)O)ccc1-c1ccc(F)c2c1CN(C(=O)OCc1ncc(C)cc1F)CC2 [Example 387, 8-(4-Carboxymethyl-2-ethoxy-phenyl)-5-fluoro-3,4-dihydro-1H-isoquinoline-2-carboxylic acid 3-fluoro-5-methyl-pyridin-2-ylmethyl ester] | 8
15 | CCOc1cc(CC(=O)O)ccc1-c1ccc(F)c2c1CN(C(=O)OCc1cccc(C)n1)CC2 [Example 390, 8-(4-Carboxymethyl-2-ethoxy-phenyl)-5-fluoro-3,4-dihydro-1H-isoquinoline-2-carboxylic acid 6-methyl-pyridin-2-ylmethyl ester] | 0.8
16 | CCOc1cc(CC(=O)O)ccc1-c1ccc(F)c2c1CN(C(=O)OCC1CC1)CC2 [Example 391, 8-(4-Carboxymethyl-2-ethoxy-phenyl)-5-fluoro-3,4-dihydro-1H-isoquinoline-2-carboxylic acid cyclopropylmethyl ester] | 1.6
17 | CCOc1cc(CC(=O)O)ccc1-c1ccc(F)c2c1CN(C(=O)OCC1CCCC1)CC2 [Example 392, 8-(4-Carboxymethyl-2-ethoxy-phenyl)-5-fluoro-3,4-dihydro-1H-isoquinoline-2-carboxylic acid cyclopentylmethyl ester] | 5.9

Other lines, results leading:

Row | IC50 [nM] | SMILES
18 | 3.8 | CCOc1ccc(CC(=O)O)cc1-c1ccc(F)c2c1CN(C(=O)/C=C/c1ccccn1)CC2 [Example 336, {4-Ethoxy-3-[5-fluoro-2-((E)-3-pyridin-2-yl-acryloyl)-1,2,3,4-tetrahydro-isoquinolin-8-yl]-phenyl}-acetic acid]
19 | 30.4 | CCOc1ccc(CC(=O)O)cc1-c1ccc(F)c2c1CN(C(=O)/C=C/c1ccn(C)n1)CC2 [Example 337, (4-Ethoxy-3-{5-fluoro-2-[(E)-3-(1-methyl-1H-pyrazol-3-yl)-acryloyl]-1,2,3,4-tetrahydro-isoquinolin-8-yl}-phenyl)-acetic acid]
20 | 2.3 | CCOc1cc(CC(=O)O)ccc1-c1ccc(F)c2c1CN(C(=O)/C=C/c1ccccn1)CC2 [Example 338, {3-Ethoxy-4-[5-fluoro-2-((E)-3-pyridin-2-yl-acryloyl)-1,2,3,4-tetrahydro-isoquinolin-8-yl]-phenyl}-acetic acid]
21 | 12.7 | CCOc1cc(CC(=O)O)ccc1-c1ccc(F)c2c1CN(C(=O)/C=C/c1cnn(C)c1)CC2 [Example 339, (3-Ethoxy-4-{5-fluoro-2-[(E)-3-(1-methyl-1H-pyrazol-4-yl)-acryloyl]-1,2,3,4-tetrahydro-isoquinolin-8-yl}-phenyl)-acetic acid]
22 | 897 | CCOc1ccc(CC(=O)O)cc1-c1ccc(F)c2c1CN(C(=O)Cc1ccccn1)CC2 [Example 340, {4-Ethoxy-3-[5-fluoro-2-(2-pyridin-2-yl-acetyl)-1,2,3,4-tetrahydro-isoquinolin-8-yl]-phenyl}-acetic acid]
23 | 5.8 | CCOc1ccc(CC(=O)O)cc1-c1ccc(F)c2c1CN(C(=O)/C=C/c1cnn(C)c1)CC2 [Example 341, (4-Ethoxy-3-{5-fluoro-2-[(E)-3-(1-methyl-1H-pyrazol-4-yl)-acryloyl]-1,2,3,4-tetrahydro-isoquinolin-8-yl}-phenyl)-acetic acid]
24 | 6 | CCOc1ccc(CC(=O)O)cc1-c1ccc(F)c2c1CN(C(=O)O[C@H](C)c1ccccc1)CC2 [Example 364, 8-(5-Carboxymethyl-2-ethoxy-phenyl)-5-fluoro-3,4-dihydro-1H-isoquinoline-2-carboxylic acid (R)-1-phenyl-ethyl ester]
25 | 8.8 | CCOc1ccc(CC(=O)O)cc1-c1ccc(F)c2c1CN(C(=O)OCc1ccnn1C)CC2 [Example 367, 8-(5-Carboxymethyl-2-ethoxy-phenyl)-5-fluoro-3,4-dihydro-1H-isoquinoline-2-carboxylic acid 2-methyl-2H-pyrazol-3-ylmethyl ester]
26 | 8.7 | CCOc1ccc(CC(=O)O)cc1-c1ccc(F)c2c1CN(C(=O)OCC=C(C)C)CC2 [Example 375, 8-(5-Carboxymethyl-2-ethoxy-phenyl)-5-fluoro-3,4-dihydro-1H-isoquinoline-2-carboxylic acid 3-methyl-but-2-enyl ester]
27 | 5.9 | CCOc1ccc(CC(=O)O)cc1-c1ccc(F)c2c1CN(C(=O)OCCOC)CC2 [Example 378, 8-(5-Carboxymethyl-2-ethoxy-phenyl)-5-fluoro-3,4-dihydro-1H-isoquinoline-2-carboxylic acid 2-methoxy-ethyl ester]
28 | 2.5 | C=C(C)CCOC(=O)N1CCc2c(F)ccc(-c3cc(CC(=O)O)ccc3OCC)c2C1 [Example 379, 8-(5-Carboxymethyl-2-ethoxy-phenyl)-5-fluoro-3,4-dihydro-1H-isoquinoline-2-carboxylic acid 3-methyl-but-3-enyl ester]
29 | 28.8 | C#CCCOC(=O)N1CCc2c(F)ccc(-c3cc(CC(=O)O)ccc3OCC)c2C1 [Example 381, 8-(5-Carboxymethyl-2-ethoxy-phenyl)-5-fluoro-3,4-dihydro-1H-isoquinoline-2-carboxylic acid but-3-ynyl ester]
30 | 14 | CCOc1ccc(CC(=O)O)cc1-c1ccc(F)c2c1CN(C(=O)OCCC(C)(C)O)CC2 [Example 382, 8-(5-Carboxymethyl-2-ethoxy-phenyl)-5-fluoro-3,4-dihydro-1H-isoquinoline-2-carboxylic acid 3-hydroxy-3-methyl-butyl ester]
31 | 19 | CCOc1ccc(CC(=O)O)cc1-c1ccc(F)c2c1CN(C(=O)OCCC(C)(C)OC)CC2 [Example 383, 8-(5-Carboxymethyl-2-ethoxy-phenyl)-5-fluoro-3,4-dihydro-1H-isoquinoline-2-carboxylic acid 3-methoxy-3-methyl-butyl ester]
32 | 3.8 | CCOc1cc(CC(=O)O)ccc1-c1ccc(F)c2c1CN(C(=O)OCc1ccnn1C)CC2 [Example 388, 8-(4-Carboxymethyl-2-ethoxy-phenyl)-5-fluoro-3,4-dihydro-1H-isoquinoline-2-carboxylic acid 2-methyl-2H-pyrazol-3-ylmethyl ester]
